We go through one compound from patent US11932638B2, “Ion channel inhibitor compounds for cancer treatment” (Centre National de la Recherche Scientifique, priority 2017, dated 2024).

Each structure is given as a SMILES string.

One data set addresses T1, SK2 channel (Rattus norvegicus, UniProt P70604).
T1 construct: expressed in transfected cells
In words: Automated patch clamp (Nanion NPC-16 Patchliner Quattro) on HEK-rSK2 cells, SK2 channel activity. The format is cell-based. An excerpt:
(§1) Cell Lines Used to Screen the Molecules on the Activity of SKCa Channels (Small Conductance Calcium-Activated Potassium Channel; SK1, SK2 and SK3) and IKCa Channels (Intermediate Conductance Calcium-Activated Potassium Channel, SK4)
(§2) Use was made of the HEK 293 T line, a foetal kidney line which was immortalised with the T antigen of the […] simian virus. This cell line is widely used on account of the ease with which these cells can be transfected with plasmids or other transfection vectors. Four stable lines were used for patch clamp experiments: HEK-hSK1, HEK-rSK2, HEK-rSK3 and HEK-IKCa/SK4 which respectively overexpress the SK1, SK2, SK3 and SK4 channels. The lines were obtained via stable transduction (Girault et al., Current Cancer Drug Targets, 2011, 11, 1111-25) and are those already routinely used to assay SK3 modulators (Potier et al. Br J Pharmacol. 2011 January; 162(2):464-79; Sevrain et al., Med. Chem. Commun., 2012, 3, 1471-1478; Sevrain et al., Organic & Biomolecular Chemistry, 2013 Jul. 21; 11(27):4479-87, Berthe W, Sevrain C M, Chantôme A, Bouchet A M, Gueguinou M, Fourbon Y, Potier-Cartereau M, Haelters J P, Couthon-Gourvès H, Vandier C, Jaffrès P A. ChemMedChem. 2016 Jul. 19; 11(14):1531-9). […] These lines therefore enabled us without difficulty to examine the effect of the molecules on the SK3 channel, and also the selectivity thereof by means of the patch clamp technique. The inhibitory activity of the non-toxic molecules was assayed on the activity of the SK3 channel. The selectivity of the molecules was determined by patch clamp on HEK cell models stably expressing the SK3 channel but also the SK1, SK2, SK3 or IKCa/SK4 channels.
(§3) Patch clamp is a technique allowing measurement of the activity of ion channels by recording macroscopic (whole cell configuration) or microscopic (e.g. inside out configuration) ionic currents through the plasma membrane. For assay of the effect of the molecules on the SKCa/IKCa channels, two complementary techniques were used: conventional, manual patch clamp and automated patch clamp with the Nanion NPC-16 Patchliner Quattro (4 channels) (Potier et al., Mol Cancer Ther 2006, 5, 2946-53; Chantome et al., Exp Cell Res 2009, 315, 3620-30; Potier et al., Biochem Biophys Res Commun 2010, 397, 42-7; Girault et al., Current Cancer Drug Targets, 2011, 11, 1111-25; Sevrain et al., Med. Chem. Commun., 2012, 3, 1471-1478; Sevrain et al., Organic & Biomolecular Chemistry, 2013 Jul. 21; 11(27):4479-87; Chantome et al., Cancer Research, 2013 Aug. 1; 73(15):4852-61, Gueguinou M, Crottès D, Chantôme A, Rapetti-Mauss R, Potier-Cartereau M, Clarysse L, Girault A, Fourbon Y, Jézéquel P, Guérin-Charbonnel C, Fromont G, Martin P, Pellissier B, Schiappa R, Chamorey E, Mignen O, Uguen A, Borgese F, Vandier C, Soriani O. Oncogene. 2017 Jan. 23. doi: 10.1038/onc.2016.501, Berthe W, Sevrain C M, Chantôme A, Bouchet A M, Gueguinou M, Fourbon Y, Potier-Cartereau M, Haelters J P, Couthon-Gourvès H, Vandier C, Jaffrès P A. ChemMedChem. 2016 Jul. 19; 11(14):1531-9, Guéguinou M, Harnois T, Crottes D, Uguen A, Deliot N, Gambade A, Chantôme A, Haelters J P, Jaffrès P A, Jourdan M L, Weber G, Soriani O, Bougnoux P, Mignen O, Bourmeyster N, Constantin B, Lecomte T, Vandier C, Potier-Cartereau M. Oncotarget. 2016 Jun. 14; 7(24):36168-36184. doi: 10.18632/oncotarget.8786).
The technique of choice to determine molecules inhibiting the activity of ion channels is the patch-clamp technique. However, this technique which is manual is time-consuming and only gives low yields. Automation of patch-clamp brought a revolution in the study and screening of ion channels and has allowed the envisaging of assays with much faster flow rate and much higher yield. There exist several automatic patch clamp devices based on the use of chips. […]
(In general: In patch-clamp work, channel activity is measured electrically.)

The subject of data set [1] is MDA-MB-435s-Luc cells expressing the SK3 channel. Briefly: In vivo mouse model of orthotopic xenograft: primary tumour and metastases. Details: species or system female NMRI nude mice. The conditions noted are these: 1 mg/kg intraperitoneal, three times per week. An excerpt:
In Vivo Mouse Model of Orthotopic Xenograft: Assay on Capacity of the Molecules to Reduce Tumour Development
This model allowed study on a metastatic cancer with development of the primary tumour and formation of metastases in parallel with primary tumour development. For this assay, female NMRI nude mice aged four weeks were used. To prepare the graft, the terminal end bud of the mice was cauterised with an electrical scalpel and 2 million cells expressing the SK3 channel and luciferase (MDA-MB-435s-Luc) implanted therein. Luciferase allows in vivo monitoring of tumour development via optical imaging (Girault et al., Current Cancer Drug Targets, 2011, 11, 1111-25; Chantome et al., Cancer Research, 2013 Aug. 1; 73(15):4852-61).
Two groups of mice were formed and compound 20 was prepared in a DMSO/PEG300/Water mixture (5:45:50) at 10 ml/kg: • Group 20 1: group treated via intraperitoneal injection of compound 20 at 1 mg/kg, three times per week for […]; and • Control group: group given injections with equivalent vehicle dilution […], three times per week for 15 weeks.
Development of the primary tumour was monitored in two manners: size measurement with a calliper rule (length×width×thickness) and measurement of bioluminescence with a bio-imaging device.
If the primary tumour reached a size of 900 mm^3, it was fully excised to best approach a clinical situation and exclude this variable which could impact the development of metastases. The experiment was continued with injections of compound 20 and monitoring of the development of metastases via BLI with front and back imaging of the mice.
The weight of the mice, bioluminescence and tumour size measurements were carried out every week to monitor tumour changes and metastases. For imaging, the mice were anaesthetised with isoflurane.
After about 15 weeks, the mice were sacrificed. Luciferin was injected before sacrifice to allow whole-animal imaging and imaging of each organ examined (bone, liver, lymph node, brain, colon).

For another data set, the target named is T2, SK3 channel (Rattus norvegicus, UniProt P70605).
T2 construct: expressed in transfected cells
Briefly: Conventional manual patch clamp on HEK-rSK3 cells, SK3 channel activity. The format is cell-based.
Text: as §1, §2
Electrophysiology/Patch-Clamp
as §3
For conventional patch clamp, the micropipette is filled with an intrapipette medium—IPM (see composition below) and allows measurement of ionic currents at the same time as allowing maintaining of membrane potential (voltage clamp). The experimental device was composed of an anti-vibration table supporting an inverted microscope (Nikon, Eclipse TE 300). The Petri dish (Corning Incorporated, USA), containing the cells was placed on a plexiglass plate attached to the microscope stage. The pipette was connected to the amplifier (Axopatch 200B) as reference electrode which allowed closing of the electrical circuit. […]

As to `c1ccc2c(c1)CCC[C@@H]2Nc1ncnc2cccnc12` [Compound 20, (S)—N-(1,2,3,4-Tetrahydronaphthalen-1-yl)pyrido[3,2-d]pyrimidin-4-amine], on SK2 channel (100 nM), testing at 0.1 µM gave an inhibition of 91.2%. Further, the inhibition (as a rule, the drop in the measured response relative to a control, in per cent) at 10 µM against SK2 channel (10 μM) stood at 91.8%; against SK3 channel (10 μM) it was 92.8%. Moreover, the “toxicity in xenografted mice” value in data set [1] is “apparent non-toxicity”. Also, the “weight of the mice versus control group” value in data set [1] (at 10 weeks, xenografted mice) is given as “no significant difference in weight between the two groups”. The “primary tumour volume versus control group” value in data set [1] (at the time of primary tumour excision) was “Tumour volume did not differ between groups”. In addition, the lung metastases entry in data set [1] (ex vivo after 15 weeks) is listed as “developed lung metastases”. Besides, in data set [1] (ex vivo after 15 weeks, FIG. 1), the bone metastases entry is recorded as “reduced the number of bone metastases”. The “ovarian and uterine metastases” value in data set [1] (ex vivo after 15 weeks, FIG. 2) is “fully stopped the development of ovarian and uterine metastases”. For the same compound, at SK3 channel (10 nM), at 0.01 µM the inhibition was 45.5%.
